Among the test systems are Candida albicans; Candida glabrata; Streptococcus agalactiae; Escherichia coli BW25113; Escherichia coli IS117#; Escherichia coli IS37#; Shigella dysenteriae.
What all share (assay): ≥ marks a high value that may be exact or a test limit, other limits are often not marked, values filed in µg/mL are converted to µM
Experiment [1] has as its system Escherichia coli ATCC 25922.
In experiment [2] the test system is Mycobacterium tuberculosis H37Rv.
For experiment [3], the system named is Mycobacterium tuberculosis.
Experiment [4] concerns Pseudomonas aeruginosa ATCC 9027.
The subject of experiment [5] is Staphylococcus aureus ATCC 25923.
Experiment [6] has as its system Escherichia coli BW25113 ΔsbmA.
Experiment [7] relates to Escherichia coli BW25113 ΔwaaG.
The subject of experiment [8] is Candida albicans ATCC 2002.
The test system of experiment [9] is Candida albicans ATCC 90028.
In experiment [10] the test system is Candida parapsilosis ATCC 22019.
Experiment [11] deals with Enterobacter cloacae ATCC 13047.
The test system of experiment [12] is Enterococcus faecalis ATCC 29212.
Experiment [13] deals with Klebsiella pneumoniae ATCC 700603.
Experiment [14] deals with Pseudomonas aeruginosa ATCC 27853.
Experiment [15] relates to Pseudomonas aeruginosa CMCCB 1010.
The subject of experiment [16] is Staphylococcus aureus IS10#.
Experiment [17] concerns Staphylococcus aureus IS37#.
Experiment [18] concerns Escherichia coli ATCC 11219.
In experiment [19] the test system is Klebsiella pneumoniae ATCC 10031.
The subject of experiment [20] is Pseudomonas aeruginosa ATCC 13388.
The subject of experiment [21] is Salmonella enterica subsp. enterica serovar Typhimurium ATCC 14028.
Experiment [22] relates to Staphylococcus aureus ATCC 6538.
Experiment [23] relates to Bacillus subtilis DSM 347.
Experiment [24] relates to Escherichia coli DH5alpha.
Experiment [25] concerns Franconibacter helveticus DSM 18396.
Experiment [26] relates to Kocuria rhizophila DSM 348.
The test system of experiment [27] is Acinetobacter johnsonii NCDC 0072.
Experiment [28] deals with Bacillus cereus NCDC 0240.
In experiment [29] the test system is Escherichia coli MTCC 0723.
Experiment [30] has as its system Listeria monocytogenes ATCC 19111.
Experiment [31] has as its system Pseudomonas aeruginosa NCDC 0105.
Experiment [32] deals with Staphylococcus aureus ATCC 29213.
Experiment [33] has as its system Staphylococcus aureus NCDC 0111.

In brackets after ≈: the same amount, converted by molar mass.

Usually MIC stands for the least concentration at which growth counts as inhibited. Lower therefore signals a more susceptible organism. Consider `CC[C@H](C)[C@H](NC(=O)[C@H](CC(C)C)NC(=O)[C@H](CO)NC(=O)[C@@H]1CCCN1C(=O)[C@@H](NC(=O)[C@H](C)NC(=O)[C@H](CCCCN)NC(=O)[C@H](CCSC)NC(=O)[C@H](C)NC(=O)[C@H](CC(C)C)NC(=O)[C@H](CCCCN)NC(=O)CNC(=O)[C@H](CC(C)C)NC(=O)[C@H](Cc1ccccc1)NC(=O)CNC(=O)[C@H](Cc1c[nH]c2ccccc12)NC(=O)[C@@H](N)Cc1ccccc1)C(C)C)C(=O)NCC(=O)NCC(=O)N[C@@H](CC(N)=O)C(=O)N[C@@H](CCCCN)C(=O)N[C@@H](CO)C(=O)N[C@@H](CO)C(=O)N[C@@H](CO)C(=O)N[C@@H](CCCCN)C(=O)O` [FWGFLGKLAMKAVPSLIGGNKSSSK], for which the MIC is 12.5 µM (≈ 32.8 µg/mL) in the experiment with Candida albicans; not below 50 µM in the experiment with Candida glabrata; 24 µM (≈ 63 µg/mL) in [1]; 21.4 µM (≈ 56.2 µg/mL) in [2]; 30.5 µM (≈ 80 µg/mL) in experiment [3]; 15 µM (≈ 39.4 µg/mL) in [4]. Further, the MIC worked out at 10 µM (≈ 26.2 µg/mL) in [5] and 15 µM (≈ 39.4 µg/mL) in the experiment on Streptococcus agalactiae.

For the molecule `CC[C@H](C)[C@H](N)C(=O)N[C@@H](CCCN=C(N)N)C(=O)N1CCC[C@H]1C(=O)N[C@@H](CCCN=C(N)N)C(=O)N1CCC[C@H]1C(=O)N1CCC[C@H]1C(=O)N[C@@H](CCCN=C(N)N)C(=O)N[C@@H](CC(C)C)C(=O)N1CCC[C@H]1C(=O)N[C@@H](CCCN=C(N)N)C(=O)N1CCC[C@H]1C(=O)N[C@@H](CCCN=C(N)N)C(=O)N1CCC[C@H]1C(=O)N[C@@H](CCCN=C(N)N)C(=O)N1CCC[C@H]1C(=O)N[C@@H](CC(C)C)C(=O)N1CCC[C@H]1C(=O)N[C@@H](Cc1ccc(O)cc1)C(=O)N1CCC[C@H]1C(=O)N[C@@H](CCCN=C(N)N)C(=O)N1CCC[C@H]1C(=O)O` [IRPRPPRLPRPRPRPLPYPRP], the minimal inhibitory concentration (MIC) was 8 µM (≈ 20.7 µg/mL) in experiment [1], not below 32 µM in experiment [6], 4 µM (≈ 10.3 µg/mL) in experiment [7] and 8 µM (≈ 20.7 µg/mL) against Escherichia coli BW25113.

Turning to `CC[C@H](C)[C@H](NC(=O)[C@H](CC(C)C)NC(=O)[C@@H]1CCCN1C(=O)[C@H](Cc1ccccc1)NC(=O)[C@@H](N)Cc1ccccc1)C(=O)N[C@@H](C)C(=O)NCC(=O)N[C@@H](CC(C)C)C(=O)N[C@@H](C)C(=O)N[C@@H](C)C(=O)N[C@@H](CCCN=C(N)N)C(=O)N[C@@H](Cc1ccccc1)C(=O)N[C@@H](CC(C)C)C(=O)N1CCC[C@H]1C(=O)N[C@@H](CCCCN)C(=O)N[C@H](C(=O)N[C@@H](Cc1ccccc1)C(=O)N[C@H]1CSSC[C@@H](C(=O)O)NC(=O)[C@H](CCCN=C(N)N)NC(=O)[C@H](CCCCN)NC(=O)[C@H]([C@@H](C)O)NC(=O)[C@H]([C@@H](C)CC)NC(=O)[C@H](CO)NC1=O)[C@@H](C)CC` [FFPLIAGLAARFLPKIFCSITKRC], the minimal inhibitory concentration (MIC) in [8] came out at 1.84 µM (≈ 5 µg/mL); in experiment [9] it was 3.69 µM (≈ 9.99 µg/mL); in experiment [10], 7.37 µM (≈ 20 µg/mL); in experiment [11], 0.921 µM (≈ 2.5 µg/mL); in experiment [12] it was 1.84 µM (≈ 5 µg/mL); in experiment [1], 0.368 µM (≈ 0.999 µg/mL). The minimal inhibitory concentration (MIC) against Escherichia coli IS117# is 3.69 µM (≈ 9.99 µg/mL); in the experiment with Escherichia coli IS37# it was 0.921 µM (≈ 2.5 µg/mL); in experiment [13], 0.921 µM (≈ 2.5 µg/mL); in experiment [14], 3.69 µM (≈ 9.99 µg/mL); in experiment [15], 1.84 µM (≈ 5 µg/mL); against Shigella dysenteriae it was 3.69 µM (≈ 9.99 µg/mL). In addition, the minimum inhibitory concentration (MIC) in experiment [5] worked out at 1.84 µM (≈ 5 µg/mL); in [16], 3.69 µM (≈ 9.99 µg/mL); in [17], 1.84 µM (≈ 5 µg/mL).

With `CC[C@H](C)[C@H](NC(=O)CN)C(=O)N[C@@H](Cc1cnc[nH]1)C(=O)N[C@@H](C)C(=O)N[C@H](C(=O)N[C@@H](CC(C)C)C(=O)N[C@@H](CCCCN)C(=O)N[C@@H](Cc1ccc(O)cc1)C(=O)NCC(=O)N[C@@H](CCCCN)C(=O)N1CCC[C@H]1C(=O)N[C@@H](CO)C(N)=O)[C@@H](C)CC` [GIHAILKYGKPS], the MIC in experiment [18] was not below 50 µM; in experiment [19] it was 30 µM (≈ 38.5 µg/mL); in experiment [20] it was not below 50 µM; in experiment [21] it was more than 50 µM; in [22] it was 5 µM (≈ 6.41 µg/mL).

Regarding `CC[C@H](C)[C@H](NC(=O)CN)C(=O)NCC(=O)N[C@@H](CCCCN)C(=O)N[C@@H](Cc1ccccc1)C(=O)N[C@@H](CC(C)C)C(=O)N[C@@H](Cc1cnc[nH]1)C(=O)N[C@@H](CO)C(=O)N[C@@H](C)C(=O)N[C@@H](CCCCN)C(=O)N[C@@H](CCCCN)C(=O)N[C@@H](Cc1ccccc1)C(=O)NCC(=O)N[C@@H](CCCCN)C(=O)N[C@@H](C)C(=O)N[C@@H](Cc1ccccc1)C(=O)N[C@@H](C)C(=O)NCC(=O)N[C@@H](CCC(=O)O)C(=O)N[C@H](C(=O)N[C@@H](CCSC)C(=O)N[C@@H](CC(N)=O)C(=O)N[C@@H](CO)C(=O)O)[C@@H](C)CC` [GIGKFLHSAKKFGKAFAGEIMNS], the MIC in experiment [23] is 8 µM (≈ 19.5 µg/mL); in experiment [24], not below 64 µM; in [25] it was not below 64 µM; in experiment [26] it was not below 64 µM.

For the molecule `CC[C@H](C)[C@H](NC(=O)[C@H](Cc1c[nH]c2ccccc12)NC(=O)[C@@H]1CCCN1C(=O)[C@H](CC(C)C)NC(=O)CN)C(=O)N[C@@H](CC(C)C)C(=O)N[C@@H](CC(C)C)C(=O)N[C@@H](CCCN=C(N)N)C(=O)N[C@@H](Cc1c[nH]c2ccccc12)C(=O)N[C@@H](CC(C)C)C(=O)N[C@@H](Cc1ccccc1)C(=O)N[C@@H](Cc1ccccc1)C(=O)N[C@@H](CCCN=C(N)N)C(=O)NCC(=O)O` [GLPWILLRWLFFRG], the MIC in experiment [27] was not below 200 µM; in [28] it was not below 100 µM; in experiment [29], not below 200 µM; in experiment [30] it was 6 µM (≈ 10.6 µg/mL); in experiment [14] it was more than 200 µM; in experiment [31], not below 200 µM. The MIC was 100 µM (≈ 177 µg/mL) in experiment [21], 3 µM (≈ 5.32 µg/mL) in [32] and 25 µM (≈ 44.4 µg/mL) in experiment [33].

Source of the values: DBAASP.
